Laboratory results reported in paper PMC10017709, “Structural basis of selective cannabinoid CB2 receptor activation” (Nature Communications, 2023).

How the values were obtained:
[1] = test system: chronic abdominal pain associated with Crohn’s disease; conditions: 14 patients with chronic abdominal pain associated with Crohn’s disease; cited from earlier work
[2] = test system: CB1R activity; experiment: Mouse tetrad assay for CB1R activity; conditions: in vivo, po, 25 mg/kg
Procedure: To determine whether LEI-102 maintained its selectivity for CB2R over CB1R in vivo, LEI-102 was tested in the mouse tetrad assay for CB1R activity. In this assay, four consecutive behavioral tests, related to anti-nociception, hypothermia, catalepsy, and spontaneous activity, were performed 120 min after administration of the agonist. […] There were no effects on nociceptive behavior assessed in tail withdrawal test nor on body temperature (Fig. 6 upper row). No effect was found on locomotor behavior (Fig. 6 lower row) in case of distance traveled, time spent mobile, or running speed of mice.
The well-established model of cisplatin-induced nephropathy was used[63]. Mice (CB2R^−/− and CB2R^+/+) were sacrificed 72 h after a single injection of cisplatin (cis-diamine platinum (II) dichloride (Sigma#P4394) 25 mg/kg i.p.; freshly dissolved in physiological saline) by cervical dislocation under deep anesthesia with 5% isoflurane, for collection of blood and tissue samples. LEI-102 was given i.p. or by oral gavage (p.o.) at 0.3, 3.0, and 10 mg/kg every day, starting 1.5 h before the cisplatin exposure. The drug was dissolved in a vehicle of DMSO:Tween 80:saline, 1:1:18. After administration of LEI‐102, mice were killed by cervical dislocation under deep anesthesia with 5% isoflurane, for collection of blood and tissue samples at the time described in the figure. The tetrad assay in mice has previously been described in detail.

effects in the tetrad assay as compared with vehicle [2] | Tail withdrawal (%MPE) ([2]; 120 min) | SMILES | abdominal pain scores [1] | adverse events [1] | catalepsy [2]
– | – | CC(C)(C)[C@@H](CO)NC(=O)c1nn(-c2c[n+]([O-])ccn2)c2c1C[C@@H]1C[C@H]21 [APD371] | improvement | mild-to-moderate adverse events | –
did not produce any effects | 30.0 | CC(C)CN1C(=O)CN(Cc2ccc(-c3ccc(F)c(CNC4CCOCC4)n3)cc2)C1=O [LEI-102, 1-(4-(5-fluoro-6-(((tetrahydro-2H-pyran-4-yl)amino)methyl)pyridin-2-yl)benzyl)-3-isobutylimidazolidine-2,4-dione] | – | – | Nor was catalepsy observed
